The target of one assay is CK2a2 (Homo sapiens (Human), UniProt P19784). The experiment in a line: Biochemical Assay for CK2 Activity. The settings on record: 33P-ATP radiochemical assay; read-out: IC50 CK2 a2. Here is the method:
Biochemical Assay for CK2 Activity
Purified CK2a2 (NP_001887; human full-length protein, GST tagged) from insect cells (final concentration 1.2 nM) is added to freshly prepared Base Reaction Buffer containing 20 mM Hepes (pH 7.5), 10 mM MgCl2, 1 mM EGTA, 0.02% Brij35, 0.02 mg/ml BSA, 0.1 mM Na3VO4, 2 mM DTT, 1% DMSO and CK2 sub [RRRDDDSDDD] (20 μM final). Test compounds in DMSO are then added and the mixture, followed by delivery of ^33P-ATP (specific activity 0.01 μCi/μl final) to initiate the reaction. The kinase reaction is incubated for 120 min at room temperature. The entire reaction mixture is washed through onto a P81 Phosphocellulose paper and washed three times for 10 minutes in 75 mM phosphoric acid and once in methanol prior to drying and scintillation counting.

Assay [1] concerns the target PASK (Homo sapiens (Human), UniProt Q96RG2). The experiment in a line: PAS Kinase FRET Assay. To be noted: TR-FRET assay; read-out: IC50 Kinase Domain. The class given is biochemical. In a few lines: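 TR-FRET read-out (665/615 nm) of ULight-peptide phosphorylation by PASK, detected with Eu-labelled anti-phospho antibody. Compound, kinase and substrate/ATP reacted 2 h at 25 °C in the dark in 50 mM HEPES, 10 mM MgCl2, 1 mM EGTA, 0.01% Tween-20, 2 mM DTT. Eleven-point dilution series made at 4× final.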

Assay [2] deals with PASK (UniProt #Q96RG2; residues 879-1323) (Homo sapiens (Human), UniProt Q96RG2). The experiment in a line: PASK ATP Radiochemical Assay. To be noted: 33P-ATP radiochemical assay; read-out: IC50 Kinase Domain. The class given is biochemical. The method, then: PASK ATP Radiochemical Assay Purified PASK (UniProt #Q96RG2; human recombinant N-terminal GST tagged construct, residues 879-1323) from insect cells (final concentration 5 nM) is added to freshly prepared Base Reaction Buffer containing 20 mM HEPES (pH 7.5), 10 mM MgCl2, 1 mM EGTA, 0.02% Brij35, 0.02 mg/ml BSA, 0.1 mM Na3VO4, 2 mM DTT, 1% DMSO and Myelin Basic Protein (20 μM final). Test compounds in DMSO are then added and the mixture, followed by delivery of ^33P-ATP (specific activity 0.01 μCi/μl final) to initiate the reaction. The kinase reaction is incubated for 120 min at room temperature. The entire reaction mixture is washed through onto a P81 Phosphocellulose paper and washed three times for 10 minutes in 75 mM phosphoric acid and once in methanol prior to drying and scintillation counting.
PASK (UniProt #Q96RG2; residues 879-1323) (Homo sapiens (Human), UniProt Q96RG2), sequence (Q96RG2 879-1323): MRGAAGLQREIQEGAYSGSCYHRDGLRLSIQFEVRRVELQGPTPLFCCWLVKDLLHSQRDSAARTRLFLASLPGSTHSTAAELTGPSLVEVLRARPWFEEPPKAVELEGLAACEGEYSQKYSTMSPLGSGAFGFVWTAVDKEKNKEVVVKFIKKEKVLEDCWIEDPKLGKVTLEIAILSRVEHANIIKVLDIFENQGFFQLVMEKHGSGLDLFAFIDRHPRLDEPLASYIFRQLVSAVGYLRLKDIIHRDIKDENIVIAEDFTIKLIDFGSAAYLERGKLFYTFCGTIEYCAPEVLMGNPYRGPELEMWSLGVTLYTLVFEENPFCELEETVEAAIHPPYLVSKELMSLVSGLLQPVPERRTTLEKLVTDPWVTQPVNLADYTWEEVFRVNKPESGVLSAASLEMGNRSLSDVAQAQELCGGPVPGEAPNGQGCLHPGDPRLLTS

CK2a2, sequence (P19784 whole entry): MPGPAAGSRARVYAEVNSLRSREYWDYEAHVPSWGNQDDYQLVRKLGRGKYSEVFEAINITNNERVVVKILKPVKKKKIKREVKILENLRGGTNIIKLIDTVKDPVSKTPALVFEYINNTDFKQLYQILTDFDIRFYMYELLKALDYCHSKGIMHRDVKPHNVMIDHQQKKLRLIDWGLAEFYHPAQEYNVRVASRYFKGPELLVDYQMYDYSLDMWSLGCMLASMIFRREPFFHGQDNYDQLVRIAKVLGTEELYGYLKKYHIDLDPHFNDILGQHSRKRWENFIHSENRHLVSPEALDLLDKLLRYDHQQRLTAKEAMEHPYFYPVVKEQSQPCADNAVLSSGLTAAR
PASK (Homo sapiens (Human), UniProt Q96RG2), sequence (Q96RG2 999-1251): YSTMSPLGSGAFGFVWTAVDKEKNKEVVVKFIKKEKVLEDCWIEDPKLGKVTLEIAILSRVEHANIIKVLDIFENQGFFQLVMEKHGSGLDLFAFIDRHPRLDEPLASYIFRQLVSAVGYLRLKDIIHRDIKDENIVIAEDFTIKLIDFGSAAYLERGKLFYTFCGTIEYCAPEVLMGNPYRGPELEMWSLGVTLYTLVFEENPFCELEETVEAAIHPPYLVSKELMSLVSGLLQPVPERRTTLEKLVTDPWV

Regarding `COc1ccc(-c2cc(=O)n3ncc(-c4ccc(F)cc4)c3[nH]2)cc1` [Example 53, 3-(4-Fluorophenyl)-5-(4-methoxyphenyl)pyrazolo[1,5-a]pyrimidin-7(4H)-one], the IC50 on CK2a2 was ≤ 10 µM.
As to `Cc1nn2c(=O)cc(-c3ccc4c(c3)OCCO4)[nH]c2c1-c1ccccc1` [Example 54, 5-(2,3-Dihydrobenzo[b][1,4]dioxin-6-yl)-2-methyl-3-phenylpyrazolo[1,5-a]pyrimidin-7(4H)-one], the IC50 at CK2a2 is ≤ 10 µM.
Regarding `Cc1nn2c(=O)cc(-c3ccc4c(c3)CCO4)[nH]c2c1-c1ccccc1` [Example 55, 5-(2,3-Dihydrobenzofuran-5-yl)-2-methyl-3-phenylpyrazolo[1,5-a]pyrimidin-7(4H)-one], the IC50 on CK2a2 was ≤ 10 µM.
As to `COc1ccc(-c2cc(=O)n3ncc(-c4ccccn4)c3[nH]2)cc1` [Example 56, 5-(4-Methoxyphenyl)-3-(pyridin-2-yl)pyrazolo[1,5-a]pyrimidin-7(4H)-one], the IC50 at CK2a2 is ≤ 10 µM.
Turning to `Cc1nn2c(=O)cc(-c3ccccc3)[nH]c2c1Cc1ccc(Cl)cc1` [Example 61], the IC50 at CK2a2 was ≤ 10 µM.
Consider `Cc1nn2c(=O)cc(-c3ccc(OC(C)C)cc3)[nH]c2c1Cc1ccc(Cl)cc1` [Example 63, 3-(4-Chlorobenzyl)-5-(4-isopropoxyphenyl)-2-methylpyrazolo[1,5-a]pyrimidin-7(4H)-one], for which the IC50 at CK2a2 was ≥ 10 µM.
Turning to `COc1cccc(-c2cc(=O)n3nc(C)c(Cc4ccc(Cl)cc4)c3[nH]2)c1` [Example 64, 3-(4-Chlorobenzyl)-5-(3-methoxyphenyl)-2-methylpyrazolo[1,5-a]pyrimidin-7(4H)-one], the concentration for half-maximal inhibition (IC50) on CK2a2 is ≥ 10 µM.
As to `COC(=O)c1ccc(-c2cc(=O)n3nc(C)c(Cc4ccc(Cl)cc4)c3[nH]2)cc1` [Example 65, Methyl 4-(3-(4-chlorobenzyl)-2-methyl-7-oxo-4,7-dihydropyrazolo[1,5-a]pyrimidin-5-yl)benzoate], the IC50 on CK2a2 is ≥ 10 µM.
With `Cc1nn2c(=O)cc(-c3ccc(C(N)=O)cc3)[nH]c2c1Cc1ccc(Cl)cc1` [Example 66, 4-(3-(4-Chlorobenzyl)-2-methyl-7-oxo-4,7-dihydropyrazolo[1,5-a]pyrimidin-5-yl)benzamide], the IC50 on CK2a2 is ≥ 10 µM.
On to `Cc1nn2c(=O)cc(-c3ccc(C(F)(F)F)cc3)[nH]c2c1Cc1ccc(Cl)cc1` [Example 67, 3-(4-Chlorobenzyl)-2-methyl-5-(4-(trifluoromethyl)phenyl)pyrazolo[1,5-a]pyrimidin-7(4H)-one], for which the IC50 on CK2a2 was ≥ 10 µM.
In the case of `COc1ccc(-c2cc(=O)n3nc(C)c(Cc4ccccc4)c3[nH]2)cc1OC` [Example 68, 3-Benzyl-5-(3,4-dimethoxyphenyl)-2-methylpyrazolo[1,5-a]pyrimidin-7(4H)-one], on CK2a2, the IC50 is ≥ 10 µM.
`COc1ccc(-c2cc(=O)n3nc(C)c(Cc4ccc(Cl)cc4)c3[nH]2)cc1OC` [Example 69, 3-(4-Chlorobenzyl)-5-(3,4-dimethoxyphenyl)-2-methylpyrazolo[1,5-a]pyrimidin-7(4H)-one]: the IC50 on CK2a2 is ≥ 10 µM.
Regarding `COc1ccc(-c2cc(=O)n3nc(C)c(Cc4ccccc4Cl)c3[nH]2)cc1` [Example 70, 3-(2-Chlorobenzyl)-5-(4-methoxyphenyl)-2-methylpyrazolo[1,5-a]pyrimidin-7-(4H)-one], the figures for the IC50 at CK2a2 and at PASK [1] were ≥ 10 µM and ≤ 10 µM, respectively.
With `Cc1nn2c(=O)cc(-c3cccnc3)[nH]c2c1-c1ccc(F)cc1` [Example 77, 3-(4-Fluorophenyl)-2-methyl-5-(pyridin-3-yl)pyrazolo[1,5-a]pyrimidin-7(4H)-one], the IC50 on CK2a2 and at PASK [2] was ≤ 10 µM throughout.
In the case of `O=c1cc(-c2ccccn2)[nH]c2c(-c3ccc(F)cc3)cnn12` [Example 79, 3-(4-Fluorophenyl)-5-(pyridin-2-yl)pyrazolo[1,5-a]pyrimidin-7(4H)-one], the IC50 at CK2a2 and at PASK [2] was ≤ 10 µM in each case.
As for `O=c1cc(-c2ccc3c(c2)OCCO3)[nH]c2c(-c3ccc(N4CCCCC4)nc3)cnn12` [Example 89, 5-(2,3-Dihydrobenzo[b][1,4]dioxin-6-yl)-3-(6-(piperidin-1-yl)pyridin-3-yl)pyrazolo[1,5-a]pyrimidin-7(4H)-one], the IC50 at CK2a2 and at PASK [1] was ≤ 10 µM throughout.
On to `O=c1cc(-c2ccc3c(c2)OCCO3)[nH]c2c(-c3cccc(F)c3)cnn12` [Example 91, 5-(2,3-Dihydrobenzo[b][1,4]dioxin-6-yl)-3-(3-fluorophenyl)pyrazolo[1,5-a]pyrimidin-7(4H)-one], for which the IC50 on CK2a2 and on PASK [1] was ≤ 10 µM in each case.
For `O=c1cc(-c2cc3ccccc3o2)[nH]c2c(-c3ccccn3)cnn12` [Example 93, 5-(Benzofuran-2-yl)-3-(pyridin-2-yl)pyrazolo[1,5-a]pyrimidin-7(4H)-one], the IC50 at PASK [1] and on PASK [2] was ≤ 10 µM each time.
Consider `O=c1cc(-c2ccc3cc[nH]c3c2)[nH]c2c(-c3ccccc3)cnn12` [Example 95, 5-(1H-Indol-6-yl)-3-phenylpyrazolo[1,5-a]pyrimidin-7(4H)-one], for which the half-inhibitory concentration (IC50) on CK2a2 and at PASK [2] was ≤ 10 µM throughout.
On to `O=c1cc(-c2ccc3c(c2)OCCO3)[nH]c2c(-c3cccnc3)c(O)nn12` [Example 101, 5-(2,3-Dihydrobenzo[b][1,4]dioxin-6-yl)-2-hydroxy-3-(pyridin-3-yl)pyrazolo[1,5-a]pyrimidin-7(4H)-one], for which the IC50 on CK2a2 and on PASK [1] was ≤ 10 µM throughout.
As to `O=c1cc(-c2cc3ccccc3o2)[nH]c2c(-c3ccccn3)cnn12` [Example 149, 5-(Benzofuran-2-yl)-3-(pyridin-2-yl)pyrazolo[1,5-a]pyrimidin-7(4H)-one], the IC50 at CK2a2 is ≤ 10 µM.
As for `COc1cc2[nH]nnc2cc1-c1cc(=O)n2nc(O)c(-c3ccccn3)c2[nH]1` [Example 244, 2-Hydroxy-5-(6-methoxy-1H-benzo[d][1,2,3]triazol-5-yl)-3-(pyridin-2-yl)pyrazolo[1,5-a]pyrimidin-7(4H)-one], the IC50 on PASK [1] is ≤ 10 µM.
The same measure, in the same setting: the value for `COc1c(-c2cc(=O)n3nc(N)c(-c4ccccn4)c3[nH]2)ccc2[nH]nnc12` [Example 246, 2-Amino-5-(4-methoxy-1H-benzo[d][1,2,3]triazol-5-yl)-3-(pyridin-2-yl)pyrazolo[1,5-a]pyrimidin-7(4H)-one] was ≤ 10 µM; that for `COc1c(-c2cc(=O)n3nc(O)c(-c4ccccn4)c3[nH]2)ccc2[nH]nnc12` [Example 247, 2-Hydroxy-5-(4-methoxy-1H-benzo[d][1,2,3]triazol-5-yl)-3-(pyridin-2-yl)pyrazolo[1,5-a]pyrimidin-7(4H)-one] was ≤ 10 µM; that for `COc1c(-c2cc(=O)n3nc(C)c(-c4ccccn4)c3[nH]2)ccc2[nH]nnc12` [Example 248, 5-(4-Methoxy-1H-benzo[d][1,2,3]triazol-5-yl)-2-methyl-3-(pyridin-2-yl)pyrazolo[1,5-a]pyrimidin-7(4H)-one] was ≤ 10 µM.
Regarding `CC(C)Oc1c(-c2cc(=O)n3ncc(-c4ccccn4)c3[nH]2)ccc2c1OCO2` [Example 250, 5-(4-Isopropoxybenzo[d][1,3]dioxol-5-yl)-3-(pyridin-2-yl)pyrazolo[1,5-a]pyrimidin-7(4H)-one], the IC50 at PASK [1] is ≤ 10 µM.
`Cc1nn2c(=O)cc(-c3ccc4c(c3OC(C)C)OCO4)[nH]c2c1-c1ccccn1` [Example 251, 5-(4-Isopropoxybenzo[d][1,3]dioxol-5-yl)-2-methyl-3-(pyridin-2-yl)pyrazolo[1,5-a]pyrimidin-7(4H)-one]: the IC50 at PASK [1] was ≤ 10 µM.
On to `CNC(=O)Oc1ccc(-c2cc(=O)n3nc(C)c(-c4ccccn4)c3[nH]2)cc1` [Example 252, 4-(2-Methyl-7-oxo-3-(pyridin-2-yl)-4,7-dihydropyrazolo[1,5-a]pyrimidin-5-yl)phenyl methylcarbamate], for which, at PASK [1], the IC50 was ≤ 10 µM.
As for `CNC(=O)Oc1ccc(-c2cc(=O)n3ncc(-c4ccccn4)c3[nH]2)cc1` [Example 253, 4-(7-Oxo-3-(pyridin-2-yl)-4,7-dihydropyrazolo[1,5-a]pyrimidin-5-yl)phenyl methylcarbamate], the IC50 on PASK [1] is ≤ 10 µM.
As to `O=c1cc(-c2ccc(-c3nnco3)cc2)[nH]c2c(-c3ccccn3)cnn12` [Example 255, 5-(4-(1,3,4-Oxadiazol-2-yl)phenyl)-3-(pyridin-2-yl)pyrazolo[1,5-a]pyrimidin-7(4H)-one], the IC50 at PASK [1] was ≤ 10 µM.

These data come from patent publication US10953012B2, “Heterocyclic compounds for the inhibition of pask” (BioEnergenix LLC, priority 2011, dated 2021).
